Results on two compounds are retold here after patent US11142533B2, “Macrocycles for use in treating disease” (TURNING POINT THERAPEUTICS, INC., priority 2019, dated 2021).

Values after ≈ are worked out from the molar mass of the structure shown. “Also recorded” adds a separate entry of the source.

Series [1] is described as follows: Solubility test in phosphate buffer. Particulars: aqueous buffer, thermodynamic from solid; phosphate buffer pH 7.4, room temperature. Format: physicochemical. The method, then: Aliquot of 1.035 mL phosphate buffer (PB) (pH 7.4) was added into 2.07 mg of the test compound (for a 2 mg·mL^−1 upper limiting solubility determination) in a 1.5 mL tubes. The mixture was ultrasonicly treated for 10 min and rotated on rotator at room temperature for more than 8 hr. After rotation, the tube was ultrasonicly treated for 10 min and centrifuged at 13000 rpm for 15 min. 0.3 mL of the supernatant was transferred into a 0.6 mL tube and discarded after rotated for 5 min for rinsing, then about 0.6 mL of the residual supernatant was transferred into the rinsed tube and centrifuged again at 13000 rpm for 15 min. The supernatant after every centrifugation was appropriately diluted and transferred for LC-MS/MS analysis where a standard curve was constructed with 7 concentration levels (2, 4, 10, 20, 40, 100 and 200 μg mL^−1) and used for the quantitation of the analyte in PB.

In series [2] the target is T1, ALK fusion protein in Ba/F3 cell-derived xenograft tumors with the EML4-ALK L1196M/G1202R fusion (Homo sapiens, UniProt Q9UM73, G1202R/L1196M).
T1 construct: expressed in transfected cells; host or cells: Ba/F3 cells (lentiviral transduction), implanted subcutaneously in SCID/Beige mice; the other entry of the earlier key: EML4 (Q9HC35, Echinoderm microtubule-associated protein-like 4)
Kind of series: In vivo pharmacodynamic study, tumor immunoblotting. The arrangement: species or system mice. Particulars: for ALK phosphorylation level compared to control: 0.6, 2, or 5 mg/kg. How it is done:
Mice bearing xenograft tumors were humanely euthanized and tumors were resected and snap frozen in liquid nitrogen and stored at −80° C. Frozen tumor samples were processed at 4° C. in 1× Cell Lysis Buffer (Cell Signaling Technologies) to extract proteins. SDS loading samples were prepared by addition of 4×LDS Sample Buffer and 10× Reducing Reagent (Life Technologies, Inc) to protein lysate. Tumor SDS protein samples were processed by SDS-PAGE and immunoblotted with rabbit anti-phosphorylated ALK Y1282/1283, rabbit anti-phosphorylated ALK Y1604, rabbit anti-ALK and mouse anti-actin antibodies (Cell Signaling Technologies). The signals from immunoblot were detected by C-DiGit Blot Scanner from LI-COR and the signal intensity were quantified using the Image Studio Digit software (LI-COR).
As the control, the expression level of actin was not affected by Compound 1 treatment.
In general terms: Immunoblotting shows a protein as a band on a membrane.

A further series deals with T2, ALK (L1198F/C1156Y) (Homo sapiens, UniProt Q9UM73, C1156Y/L1198F).
T2 construct: purchased Reaction Biology Corporation (contract assay)
The experiment in a line: Biochemical kinase assay (Reaction Biology). The settings on record: 10 μM ATP.

For the next series, the target named is T3, ALK (L1198F) (Homo sapiens, UniProt Q9UM73, L1198F).
T3 construct: purchased Reaction Biology Corporation (contract assay)
Kind of series: Biochemical kinase assay (Reaction Biology). The settings on record: 10 μM ATP.

For another series, the target named is T4, ALK (E1210K) (Homo sapiens, UniProt Q9UM73, E1210K).
T4 construct: purchased Reaction Biology Corporation (contract assay)
Kind of series: Biochemical kinase assay (Reaction Biology). The settings on record: 10 μM ATP.

Another series addresses T5, ALK (Homo sapiens, UniProt Q9UM73).
T5 construct: purchased Reaction Biology Corporation (contract assay)
Kind of series: Biochemical kinase assay (Reaction Biology). The settings on record: 10 μM ATP.

A further series deals with T6, ALK (L1152P) (Homo sapiens, UniProt Q9UM73, L1152P).
T6 construct: purchased Reaction Biology Corporation (contract assay)
The experiment in a line: Biochemical kinase assay (Reaction Biology). The settings on record: 10 μM ATP.

Another series concerns the target T7, ALK (T1151-L1152insT) (Homo sapiens, UniProt Q9UM73, INS1151T).
T7 construct: purchased Reaction Biology Corporation (contract assay)
Kind of series: Biochemical kinase assay (Reaction Biology). The settings on record: 10 μM ATP.

The next series concerns the target T8, ALK (T1151M) (Homo sapiens, UniProt Q9UM73, T1151M).
T8 construct: purchased Reaction Biology Corporation (assay run there)
Kind of series: Biochemical kinase assay (Reaction Biology). Particulars: 10 μM ATP.

For the next series, the target named is T9, ALK (C1156Y) (Homo sapiens, UniProt Q9UM73, C1156Y).
T9 construct: purchased Reaction Biology Corporation (contract assay)
Kind of series: Biochemical kinase assay (Reaction Biology). Particulars: 10 μM ATP.

The next series addresses T10, ALK (L1196M) (Homo sapiens, UniProt Q9UM73, L1196M).
T10 construct: purchased Reaction Biology Corporation (contract assay)
Kind of series: Biochemical kinase assay (Reaction Biology). Particulars: 10 μM ATP.

For another series, the target named is T11, ALK (L1198F/G1202R) (Homo sapiens, UniProt Q9UM73, G1202R/L1198F).
T11 construct: purchased Reaction Biology Corporation (contract assay)
The experiment in a line: Biochemical kinase assay (Reaction Biology). The settings on record: 10 μM ATP.

Another series addresses T12, ALK (L1198F/L1196M) (Homo sapiens, UniProt Q9UM73, L1196M/L1198F).
T12 construct: purchased Reaction Biology Corporation (contract assay)
Kind of series: Biochemical kinase assay (Reaction Biology). The settings on record: 10 μM ATP.

For the next series, the target named is T13, ALK (G1202R) (Homo sapiens, UniProt Q9UM73, G1202R).
T13 construct: purchased Reaction Biology Corporation (contract assay)
Kind of series: Biochemical kinase assay (Reaction Biology). Particulars: 10 μM ATP.

The target of another series is T14, ALK (F1174S) (Homo sapiens, UniProt Q9UM73, F1174S).
T14 construct: purchased Reaction Biology Corporation (contract assay)
The experiment in a line: Biochemical kinase assay (Reaction Biology). The settings on record: 10 μM ATP.

Another series has as its target T15, ALK (D1203N) (Homo sapiens, UniProt Q9UM73, D1203N).
T15 construct: purchased Reaction Biology Corporation (contract assay)
The experiment in a line: Biochemical kinase assay (Reaction Biology). Particulars: 10 μM ATP.

A further series addresses T16, ALK (F1174C) (Homo sapiens, UniProt Q9UM73, F1174C).
T16 construct: purchased Reaction Biology Corporation (contract assay)
Kind of series: Biochemical kinase assay (Reaction Biology). Particulars: 10 μM ATP.

A further series has as its target T17, ALK (F1245C) (Homo sapiens, UniProt Q9UM73, F1245C).
T17 construct: purchased Reaction Biology Corporation (contract assay)
Kind of series: Biochemical kinase assay (Reaction Biology). Particulars: 10 μM ATP.

The target of another series is T18, ALK (F1174L) (Homo sapiens, UniProt Q9UM73, F1174L).
T18 construct: purchased Reaction Biology Corporation (contract assay)
The experiment in a line: Biochemical kinase assay (Reaction Biology). Particulars: 10 μM ATP.

For a further series, the target named is T19, ALK (G1269A) (Homo sapiens, UniProt Q9UM73, G1269A).
T19 construct: purchased Reaction Biology Corporation (contract assay)
Kind of series: Biochemical kinase assay (Reaction Biology). Particulars: 10 μM ATP.

The next series deals with T20, ALK (G1269S) (Homo sapiens, UniProt Q9UM73, G1269S).
T20 construct: purchased Reaction Biology Corporation (contract assay)
Kind of series: Biochemical kinase assay (Reaction Biology). Particulars: 10 μM ATP.

The target in a further series is T21, ALK (E1210K/S1206C) (Homo sapiens, UniProt Q9UM73, E1210K/S1206C).
T21 construct: purchased Reaction Biology Corporation (contract assay)
Kind of series: Biochemical kinase assay (Reaction Biology). The settings on record: 10 μM ATP.

The target of a further series is T22, ALK (I1171N) (Homo sapiens, UniProt Q9UM73, I1171N).
T22 construct: purchased Reaction Biology Corporation (contract assay)
Kind of series: Biochemical kinase assay (Reaction Biology). Particulars: 10 μM ATP.

For another series, the target named is T23, ALK (E1210K/D1203N) (Homo sapiens, UniProt Q9UM73, D1203N/E1210K).
T23 construct: purchased Reaction Biology Corporation (contract assay)
The experiment in a line: Biochemical kinase assay (Reaction Biology). The settings on record: 10 μM ATP.

The mark [3] stands for this setting: single oral dose 10 mg/kg, 2 hours post dose, tumor immunoblot, 10 mg/kg.

What is called solubility is the dissolved amount per volume that the medium holds. Turning to `CC1(C)COc2ccc(F)cc2CN2c3nc4c(cnn4cc3OC[C@H]2C(F)F)C(=O)N1` [Compound 1, (4S)-4-(Difluoromethyl)-8-fluoro-13,13-dimethyl-3,4,13,14-tetrahydro-6H-18,1-(metheno)[1,4]oxazino[3,4-i]pyrazolo[4,3-f][1,4,8,10]benzoxatriazacyclotridecin-15(12H)-one], the solubility in series [1] was 3.3 µg/mL (≈ 7.38 µM). Besides, the “ALK phosphorylation level compared to control” value in series [2] (at 12 hours) is “only showed reduction at 12 hours at the highest dose”. In [2] (each dose, at 2 hours), the “ALK phosphorylation level compared to control” value is on record as “significantly reduced”. In [2] (setting [3]), the “level of ALK fusion expression vs vehicle” value is listed as “reduction; also recorded: reduced”, the “level of phosphorylation of ALK fusions at Y1282/1283 vs vehicle” value is on record as “inhibition of phosphorylation; also recorded: reduced” and the “level of phosphorylation of ALK fusions at Y1604 vs vehicle” value is “inhibition of phosphorylation; also recorded: reduced”.

Usually IC50 stands for the point on the concentration scale where inhibition reaches its midpoint. `O=C1NCC2(CC2)COc2ccc(F)cc2CN2c3nc4c1cnn4cc3OC[C@H]2C(F)F` [Compound 2, (16′S)-16′-(Difluoromethyl)-12′-fluoro-4′H,5′H,6′H,8′H,14′H,16′H,17′H-spiro[cyclopropane-1,7′-[1,19](metheno)[1,4]oxazino[3,4-j]pyrazolo[4,3-g][1,5,9,11]benzoxatriazacyclotetradecin]-4′-one]: the IC50 at ALK (L1198F/C1156Y) was found to be 0.15 nM; against ALK (L1198F), 0.85 nM; at ALK (E1210K), 0.21 nM; against ALK, 1.4 nM; against ALK (L1152P) it was 1.96 nM; against ALK (T1151-L1152insT) it was 0.86 nM. In addition, the IC50 amounted to 0.28 nM against ALK (T1151M); 0.11 nM at ALK (C1156Y); 0.18 nM at ALK (L1196M); 0.49 nM against ALK (L1198F/G1202R); 0.1 nM against ALK (L1198F/L1196M); 0.74 nM against ALK (G1202R). For the same compound, the 50% inhibitory concentration (IC50) against ALK (F1174S) is 0.76 nM; against ALK (D1203N), 2.9 nM; on ALK (F1174C), 0.92 nM; at ALK (F1245C), 0.41 nM; on ALK (F1174L) it was 0.42 nM; at ALK (G1269A) it was 1.28 nM. Besides, the IC50 at ALK (G1269S) came to 6.14 nM; against ALK (E1210K/S1206C), 0.13 nM; on ALK (I1171N), 1.16 nM; against ALK (E1210K/D1203N), 4 nM. This compound also gave a solubility in series [1] of 2.6 µg/mL (≈ 5.66 µM).
